Key:
Conditions in all cases: Compound concentration 100.0 nM
[1] = target: Dual specificity mitogen-activated protein kinase kinase 1 (Homo sapiens) (UniProt Q02750)
[2] = target: Myosin light chain kinase, smooth muscle (Homo sapiens) (UniProt Q15746)
[3] = target: Cyclin-dependent kinase 17 (Homo sapiens) (UniProt Q00537)
[4] = target: Cyclin-dependent kinase 2 homolog (Plasmodium falciparum (isolate 3D7)) (UniProt P61075)
[5] = target: NT-3 growth factor receptor (Homo sapiens) (UniProt Q16288)
[6] = target: Casein kinase II subunit alpha' (Homo sapiens) (UniProt P19784)
[7] = target: Mitogen-activated protein kinase kinase kinase kinase 4 (Homo sapiens) (UniProt O95819)
[8] = target: Rho-associated protein kinase 2 (Homo sapiens) (UniProt O75116)
[9] = target: TGF-beta receptor type-2 (Homo sapiens) (UniProt P37173)
[10] = target: Serine/threonine-protein kinase 38 (Homo sapiens) (UniProt Q15208)
[11] = target: Cyclin-dependent kinase 8 (Homo sapiens) (UniProt P49336)
[12] = tested on: Mast/stem cell growth factor receptor Kit (Homo sapiens), P10721 [V559D,V654A]
[13] = target: Proto-oncogene tyrosine-protein kinase ROS (Homo sapiens) (UniProt P08922)
[14] = target: Cyclin-dependent kinase 19 (Homo sapiens) (UniProt Q9BWU1)
[15] = target: 3-phosphoinositide-dependent protein kinase 1 (Homo sapiens) (UniProt O15530)
[16] = target: Hepatocyte growth factor receptor (Homo sapiens) (UniProt P08581)
[17] = target: Insulin receptor (Homo sapiens) (UniProt P06213)
[18] = target: Ephrin type-A receptor 1 (Homo sapiens) (UniProt P21709)
[19] = target: 5'-AMP-activated protein kinase catalytic subunit alpha-1 (Homo sapiens) (UniProt Q13131)
[20] = target: Aurora kinase B (Homo sapiens) (UniProt Q96GD4)
[21] = target: Tyrosine-protein kinase ABL2 (Homo sapiens) (UniProt P42684)
[22] = target: Phosphatidylinositol 4-phosphate 5-kinase type-1 alpha (Homo sapiens) (UniProt Q99755)
[23] = target: Ribosomal protein S6 kinase beta-1 (Homo sapiens) (UniProt P23443)
[24] = target: Tyrosine-protein kinase receptor UFO (Homo sapiens) (UniProt P30530)
[25] = target: Dual specificity mitogen-activated protein kinase kinase 5 (Homo sapiens) (UniProt Q13163)
[26] = tested on: Serine/threonine-protein kinase B-raf (Homo sapiens), P15056 [V600E]
[27] = tested on: Epidermal growth factor receptor (Homo sapiens), P00533 [L858R]
[28] = tested on: Phosphatidylinositol 4,5-bisphosphate 3-kinase catalytic subunit alpha isoform (Homo sapiens), P42336 [H1047L]
[29] = target: Epidermal growth factor receptor (Homo sapiens) (UniProt P00533)
[30] = target: Dual specificity protein kinase CLK1 (Homo sapiens) (UniProt P49759)
[31] = target: Receptor-type tyrosine-protein kinase FLT3 (Homo sapiens) (UniProt P36888)
[32] = target: Ribosomal protein S6 kinase alpha-2 (Homo sapiens) (UniProt Q15349)
[33] = target: Calcium/calmodulin-dependent protein kinase type II subunit beta (Homo sapiens) (UniProt Q13554)
[34] = target: Cyclin-dependent kinase-like 3 (Homo sapiens) (UniProt Q8IVW4)
[35] = target: Serine/threonine-protein kinase LATS1 (Homo sapiens) (UniProt O95835)
[36] = target: Receptor tyrosine-protein kinase erbB-4 (Homo sapiens) (UniProt Q15303)
[37] = tested on: Tyrosine-protein kinase ABL1 (Homo sapiens), P00519 [Y253F]
[38] = target: Serine/threonine-protein kinase 24 (Homo sapiens) (UniProt Q9Y6E0)
[39] = tested on: Tyrosine-protein kinase ABL1 (Homo sapiens), P00519 [F317L]
[40] = target: Serine/threonine-protein kinase DCLK1 (Homo sapiens) (UniProt O15075)
[41] = target: Phosphatidylinositol 5-phosphate 4-kinase type-2 gamma (Homo sapiens) (UniProt Q8TBX8)
[42] = target: Protein kinase C delta type (Homo sapiens) (UniProt Q05655)
[43] = target: Mitogen-activated protein kinase 15 (Homo sapiens) (UniProt Q8TD08)
[44] = target: Mitogen-activated protein kinase kinase kinase 5 (Homo sapiens) (UniProt Q99683)
[45] = target: Mitogen-activated protein kinase kinase kinase kinase 2 (Homo sapiens) (UniProt Q12851)
Chain of Mitogen-activated protein kinase kinase kinase kinase 2 (Homo sapiens) (Q12851 whole entry): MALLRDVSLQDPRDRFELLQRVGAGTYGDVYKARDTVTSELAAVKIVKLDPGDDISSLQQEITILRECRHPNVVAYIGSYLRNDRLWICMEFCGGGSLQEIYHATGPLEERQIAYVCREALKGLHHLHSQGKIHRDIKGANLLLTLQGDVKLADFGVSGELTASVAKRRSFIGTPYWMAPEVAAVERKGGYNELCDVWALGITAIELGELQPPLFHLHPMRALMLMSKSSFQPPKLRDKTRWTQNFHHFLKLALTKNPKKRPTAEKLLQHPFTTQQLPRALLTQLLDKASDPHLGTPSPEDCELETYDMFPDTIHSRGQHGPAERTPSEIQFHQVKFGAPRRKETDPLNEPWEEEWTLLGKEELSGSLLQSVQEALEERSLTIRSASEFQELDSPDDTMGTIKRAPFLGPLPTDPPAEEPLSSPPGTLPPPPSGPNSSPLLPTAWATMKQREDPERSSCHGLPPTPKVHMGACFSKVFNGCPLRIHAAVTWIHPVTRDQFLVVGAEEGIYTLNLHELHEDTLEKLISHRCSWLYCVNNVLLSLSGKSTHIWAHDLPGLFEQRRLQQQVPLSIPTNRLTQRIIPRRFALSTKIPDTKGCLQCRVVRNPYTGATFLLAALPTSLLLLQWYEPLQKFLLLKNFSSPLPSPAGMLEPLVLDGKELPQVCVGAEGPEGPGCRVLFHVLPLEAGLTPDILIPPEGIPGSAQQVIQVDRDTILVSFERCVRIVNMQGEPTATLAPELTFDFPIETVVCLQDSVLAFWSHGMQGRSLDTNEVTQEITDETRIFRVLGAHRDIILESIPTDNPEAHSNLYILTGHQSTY

Chain of Tyrosine-protein kinase receptor UFO (Homo sapiens) (P30530 whole entry): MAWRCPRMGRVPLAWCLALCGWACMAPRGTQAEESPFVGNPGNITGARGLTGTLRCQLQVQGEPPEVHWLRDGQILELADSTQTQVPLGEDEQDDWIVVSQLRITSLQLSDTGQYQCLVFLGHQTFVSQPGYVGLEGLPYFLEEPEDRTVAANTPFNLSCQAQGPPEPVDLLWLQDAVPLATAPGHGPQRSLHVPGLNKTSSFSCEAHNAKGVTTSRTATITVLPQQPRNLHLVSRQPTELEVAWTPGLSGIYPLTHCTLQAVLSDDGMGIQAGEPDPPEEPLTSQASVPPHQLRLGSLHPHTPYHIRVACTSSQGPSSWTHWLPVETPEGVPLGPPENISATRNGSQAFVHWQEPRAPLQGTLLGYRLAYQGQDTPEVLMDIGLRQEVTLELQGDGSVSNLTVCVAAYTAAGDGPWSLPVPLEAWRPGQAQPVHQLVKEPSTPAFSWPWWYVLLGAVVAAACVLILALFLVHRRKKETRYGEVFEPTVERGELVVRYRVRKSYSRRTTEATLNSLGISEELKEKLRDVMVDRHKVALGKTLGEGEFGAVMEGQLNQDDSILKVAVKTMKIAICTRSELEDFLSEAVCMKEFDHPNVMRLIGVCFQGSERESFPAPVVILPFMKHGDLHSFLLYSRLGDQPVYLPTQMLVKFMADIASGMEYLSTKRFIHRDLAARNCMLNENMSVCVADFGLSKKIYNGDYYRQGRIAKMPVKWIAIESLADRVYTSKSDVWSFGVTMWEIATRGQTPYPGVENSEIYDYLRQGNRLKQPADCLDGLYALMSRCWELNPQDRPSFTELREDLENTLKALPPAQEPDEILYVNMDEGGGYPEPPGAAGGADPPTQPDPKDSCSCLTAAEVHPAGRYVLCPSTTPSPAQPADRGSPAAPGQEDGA
Chain of Serine/threonine-protein kinase DCLK1 (Homo sapiens) (O15075 whole entry): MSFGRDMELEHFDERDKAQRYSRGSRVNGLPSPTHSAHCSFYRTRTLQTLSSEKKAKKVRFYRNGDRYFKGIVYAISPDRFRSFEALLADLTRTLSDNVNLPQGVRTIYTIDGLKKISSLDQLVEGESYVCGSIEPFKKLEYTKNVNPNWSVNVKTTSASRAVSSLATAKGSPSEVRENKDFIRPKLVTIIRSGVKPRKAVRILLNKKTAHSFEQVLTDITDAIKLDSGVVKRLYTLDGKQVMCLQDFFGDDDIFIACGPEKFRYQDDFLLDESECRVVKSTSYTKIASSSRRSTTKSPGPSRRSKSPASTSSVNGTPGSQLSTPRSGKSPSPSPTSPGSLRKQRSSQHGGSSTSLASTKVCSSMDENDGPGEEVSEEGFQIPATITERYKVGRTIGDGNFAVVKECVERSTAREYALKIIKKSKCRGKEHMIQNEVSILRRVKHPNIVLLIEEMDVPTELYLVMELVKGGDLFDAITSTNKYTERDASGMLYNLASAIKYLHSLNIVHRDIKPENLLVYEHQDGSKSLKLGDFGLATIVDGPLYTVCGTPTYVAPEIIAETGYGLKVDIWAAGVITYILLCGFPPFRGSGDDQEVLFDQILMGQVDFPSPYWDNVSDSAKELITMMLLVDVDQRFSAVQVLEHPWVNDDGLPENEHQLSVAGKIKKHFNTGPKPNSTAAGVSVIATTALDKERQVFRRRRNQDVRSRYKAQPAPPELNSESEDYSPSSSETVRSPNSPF
Chain of Myosin light chain kinase, smooth muscle (Homo sapiens) (Q15746 whole entry): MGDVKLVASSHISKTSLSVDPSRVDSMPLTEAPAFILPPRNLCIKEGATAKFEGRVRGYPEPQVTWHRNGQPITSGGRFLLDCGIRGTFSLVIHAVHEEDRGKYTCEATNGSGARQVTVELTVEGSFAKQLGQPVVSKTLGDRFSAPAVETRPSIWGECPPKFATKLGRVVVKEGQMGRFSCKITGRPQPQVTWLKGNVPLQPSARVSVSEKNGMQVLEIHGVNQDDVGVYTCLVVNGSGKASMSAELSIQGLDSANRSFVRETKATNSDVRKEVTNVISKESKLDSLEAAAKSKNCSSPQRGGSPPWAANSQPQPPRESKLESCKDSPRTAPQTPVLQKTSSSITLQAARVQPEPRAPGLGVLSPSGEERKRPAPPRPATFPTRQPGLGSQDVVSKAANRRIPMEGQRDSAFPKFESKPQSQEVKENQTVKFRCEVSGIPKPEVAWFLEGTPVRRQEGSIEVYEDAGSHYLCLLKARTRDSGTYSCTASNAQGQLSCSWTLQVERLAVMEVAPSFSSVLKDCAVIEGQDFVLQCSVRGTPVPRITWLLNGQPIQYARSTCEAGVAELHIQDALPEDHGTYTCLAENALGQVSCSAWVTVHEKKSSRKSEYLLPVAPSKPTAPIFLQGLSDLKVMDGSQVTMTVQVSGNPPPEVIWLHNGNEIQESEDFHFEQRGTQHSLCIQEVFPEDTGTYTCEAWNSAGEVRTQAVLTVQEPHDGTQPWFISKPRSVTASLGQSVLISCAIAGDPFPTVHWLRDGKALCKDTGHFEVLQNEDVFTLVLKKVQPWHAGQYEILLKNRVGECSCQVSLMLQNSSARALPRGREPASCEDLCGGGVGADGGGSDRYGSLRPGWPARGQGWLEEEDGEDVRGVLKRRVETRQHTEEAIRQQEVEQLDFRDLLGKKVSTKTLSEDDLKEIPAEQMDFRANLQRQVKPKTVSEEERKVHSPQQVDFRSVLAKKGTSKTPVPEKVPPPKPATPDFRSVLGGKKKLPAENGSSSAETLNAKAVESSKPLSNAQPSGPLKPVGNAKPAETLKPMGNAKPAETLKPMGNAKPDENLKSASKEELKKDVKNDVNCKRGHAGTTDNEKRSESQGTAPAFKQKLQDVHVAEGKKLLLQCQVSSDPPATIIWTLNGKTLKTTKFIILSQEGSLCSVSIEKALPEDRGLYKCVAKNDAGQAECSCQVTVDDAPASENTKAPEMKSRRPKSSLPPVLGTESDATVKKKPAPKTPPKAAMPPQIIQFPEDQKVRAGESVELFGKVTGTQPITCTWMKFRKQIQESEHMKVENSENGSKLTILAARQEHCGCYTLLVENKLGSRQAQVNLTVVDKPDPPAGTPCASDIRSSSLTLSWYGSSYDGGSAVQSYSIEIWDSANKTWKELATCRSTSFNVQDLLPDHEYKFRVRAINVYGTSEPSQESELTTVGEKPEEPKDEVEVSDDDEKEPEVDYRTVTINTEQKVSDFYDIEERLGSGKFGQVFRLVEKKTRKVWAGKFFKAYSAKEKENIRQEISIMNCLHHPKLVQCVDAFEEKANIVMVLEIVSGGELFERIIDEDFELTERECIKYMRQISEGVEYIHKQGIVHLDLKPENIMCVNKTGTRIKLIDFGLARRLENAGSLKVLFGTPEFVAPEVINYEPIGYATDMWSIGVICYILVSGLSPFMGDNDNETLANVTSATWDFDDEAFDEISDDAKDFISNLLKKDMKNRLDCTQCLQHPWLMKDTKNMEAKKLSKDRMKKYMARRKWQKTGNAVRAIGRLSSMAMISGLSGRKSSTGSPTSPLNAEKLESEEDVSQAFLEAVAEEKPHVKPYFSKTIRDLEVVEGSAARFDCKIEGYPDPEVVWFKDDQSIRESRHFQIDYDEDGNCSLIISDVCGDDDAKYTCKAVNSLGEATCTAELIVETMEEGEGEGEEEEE
Chain of Cyclin-dependent kinase 8 (Homo sapiens) (P49336 whole entry): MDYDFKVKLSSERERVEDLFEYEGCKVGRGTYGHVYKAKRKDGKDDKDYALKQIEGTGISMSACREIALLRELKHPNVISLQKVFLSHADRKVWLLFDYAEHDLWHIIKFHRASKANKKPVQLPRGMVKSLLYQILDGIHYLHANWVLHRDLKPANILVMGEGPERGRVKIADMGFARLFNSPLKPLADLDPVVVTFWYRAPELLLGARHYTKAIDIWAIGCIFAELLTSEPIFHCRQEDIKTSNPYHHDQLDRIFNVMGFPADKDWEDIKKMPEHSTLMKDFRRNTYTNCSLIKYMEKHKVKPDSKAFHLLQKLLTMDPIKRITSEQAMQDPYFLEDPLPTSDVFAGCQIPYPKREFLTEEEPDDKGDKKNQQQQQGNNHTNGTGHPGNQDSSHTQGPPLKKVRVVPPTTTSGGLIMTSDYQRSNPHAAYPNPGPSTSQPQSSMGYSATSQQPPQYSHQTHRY

CS(=O)(=O)N1CCCC(NC(=O)[C@H](CCC2CCCCC2)NC(=O)c2ccc(CNc3ncnc4c3nnn4-c3ccccc3)cc2)C1 (stereo not given in full) [SR-301]
residual activity [1]: 100% | residual activity [2]: 100% | residual activity [3]: 86% | residual activity [4]: 100% | residual activity [5]: 86% | residual activity [6]: 85% | residual activity [7]: 66% | residual activity [8]: 100% | residual activity [9]: 93% | residual activity [10]: 83% | residual activity [11]: 100% | residual activity [12]: 100% | residual activity [13]: 91% | residual activity [14]: 90% | residual activity [15]: 99% | residual activity [16]: 68% | residual activity [17]: 100% | residual activity [18]: 95% | residual activity [19]: 100% | residual activity [20]: 100% | residual activity [21]: 100% | residual activity [22]: 100% | residual activity [23]: 100% | residual activity [24]: 79% | residual activity [25]: 100% | residual activity [26]: 100% | residual activity [27]: 100% | residual activity [28]: 76% | residual activity [29]: 100% | residual activity [30]: 87% | residual activity [31]: 97% | residual activity [32]: 100% | residual activity [33]: 100% | residual activity [34]: 96% | residual activity [35]: 100% | residual activity [36]: 61% | residual activity [37]: 84% | residual activity [38]: 100% | residual activity [39]: 100% | residual activity [40]: 100% | residual activity [41]: 100% | residual activity [42]: 80% | residual activity [43]: 100% | residual activity [44]: 100% | residual activity [45]: 100%

CS(=O)(=O)N1CCCC(NC(=O)[C@H](CCC2CCCCC2)NC(=O)c2ccc(CNC(=O)c3cnc4ccccn34)cc2)C1 (stereo not given in full) [SR-302]
residual activity [1]: 100% | residual activity [2]: 100% | residual activity [3]: 80% | residual activity [4]: 100% | residual activity [5]: 88% | residual activity [6]: 100% | residual activity [7]: 100% | residual activity [8]: 100% | residual activity [9]: 91% | residual activity [10]: 81% | residual activity [11]: 42% | residual activity [12]: 100% | residual activity [13]: 100% | residual activity [14]: 100% | residual activity [15]: 100% | residual activity [16]: 62% | residual activity [17]: 100% | residual activity [18]: 93% | residual activity [19]: 100% | residual activity [20]: 95% | residual activity [21]: 56% | residual activity [22]: 89% | residual activity [23]: 100% | residual activity [24]: 96% | residual activity [25]: 97% | residual activity [26]: 51% | residual activity [27]: 83% | residual activity [28]: 100% | residual activity [29]: 76% | residual activity [30]: 86% | residual activity [31]: 93% | residual activity [32]: 80% | residual activity [33]: 100% | residual activity [34]: 100% | residual activity [35]: 98% | residual activity [36]: 95% | residual activity [37]: 76% | residual activity [38]: 95% | residual activity [39]: 32% | residual activity [40]: 99% | residual activity [41]: 100% | residual activity [42]: 100% | residual activity [43]: 100% | residual activity [44]: 100% | residual activity [45]: 92%

Source: ChEMBL document CHEMBL4507324 (2021)
